Laboratory results published in ChEMBL document CHEMBL1697692, “Developing structure-activity relationships for the prediction of hepatotoxicity” (Chem Res Toxicol, 2010).

Tested on: Hepatotoxicity
Assay: Literature-mined public compounds from Greene et al multi-species hepatotoxicity modelling dataset

Row | SMILES | Hepatotoxicity
1 | CC1(C)S[C@@H]2[C@H](NC(=O)Cc3ccccc3)C(=O)N2[C@H]1C(=O)[O-].[Na+] [PENICILLIN G SODIUM] | HH: Evidence of human hepatotoxicity
2 | C1CCC(C(CC2CCCCN2)C2CCCCC2)CC1 (stereo unspecified) [PERHEXILINE] | HH: Evidence of human hepatotoxicity
3 | CC1(C)C(C=C(Cl)Cl)C1C(=O)OCc1cccc(Oc2ccccc2)c1 (stereo unspecified) [PERMETHRIN] | NE: No evidence of hepatotoxicity in any species
4 | CCOc1ccc(NC(C)=O)cc1 [PHENACETIN] | HH: Evidence of human hepatotoxicity
5 | Cl.Nc1ccc(/N=N/c2ccccc2)c(N)n1 [PHENAZOPYRIDINE HYDROCHLORIDE] | HH: Evidence of human hepatotoxicity
6 | NNCCc1ccccc1 [PHENELZINE] | NE: No evidence of hepatotoxicity in any species
7 | c1ccc2c(c1)Nc1ccccc1S2 [PHENOTHIAZINE] | HH: Evidence of human hepatotoxicity
8 | CC(COc1ccccc1)N(CCCl)Cc1ccccc1.Cl (stereo unspecified) [PHENOXYBENZAMINE HYDROCHLORIDE] | NE: No evidence of hepatotoxicity in any species
9 | CS(=O)(=O)O.Cc1ccc(N(CC2=NCCN2)c2cccc(O)c2)cc1 [PHENTOLAMINE MESYLATE] | HH: Evidence of human hepatotoxicity
10 | S=C=Nc1ccccc1 [PHENYLISOTHIOCYANATE] | AH: Evidence for animal hepatotoxicity but not tested in humans
11 | CC(N)C(O)c1ccccc1.Cl (stereo unspecified) [PHENYLPROPANOLAMINE HYDROCHLORIDE] | NE: No evidence of hepatotoxicity in any species
12 | O=C1NC(=O)C(c2ccccc2)(c2ccccc2)N1 [PHENYTOIN] | HH: Evidence of human hepatotoxicity
13 | CNC(=O)Oc1ccc2c(c1)[C@]1(C)CCN(C)[C@@H]1N2C [PHYSOSTIGMINE] | NE: No evidence of hepatotoxicity in any species
14 | CC[C@@H]1C(=O)OC[C@@H]1Cc1cncn1C [PILOCARPINE] | NE: No evidence of hepatotoxicity in any species
15 | O=c1[nH]c2ccccc2n1C1CCN(CCCC(c2ccc(F)cc2)c2ccc(F)cc2)CC1 [PIMOZIDE] | NE: No evidence of hepatotoxicity in any species
16 | CC(N/C(=N\C#N)Nc1ccncc1)C(C)(C)C (stereo unspecified) [PINACIDIL ANHYDROUS] | NE: No evidence of hepatotoxicity in any species
17 | CC(C)NCC(O)COc1cccc2[nH]ccc12 (stereo unspecified) [PINDOLOL] | NE: No evidence of hepatotoxicity in any species
18 | CCc1ccc(CCOc2ccc(CC3SC(=O)NC3=O)cc2)nc1 (stereo unspecified) [PIOGLITAZONE] | WE: Weak evidence (<10 case reports) of human hepatotoxicity
19 | Cc1cccc(Nc2cc(Cl)nc(SCC(=O)O)n2)c1C [PIRINIXIC ACID] | AH: Evidence for animal hepatotoxicity but not tested in humans
20 | CN1C(C(=O)Nc2ccccn2)=C(O)c2ccccc2S1(=O)=O [PIROXICAM] | HH: Evidence of human hepatotoxicity
21 | CC(C(=O)O)c1ccc(N2CC=CC2)c(Cl)c1 (stereo unspecified) [PIRPROFEN] | HH: Evidence of human hepatotoxicity

Row | SMILES | Hepatotoxicity
22 | C[C@]12C=CC(=O)C=C1CC[C@@H]1[C@@H]2C(=O)C[C@@]2(C)[C@H]1CC[C@]2(O)C(=O)CO [PREDNISONE] | WE: Weak evidence (<10 case reports) of human hepatotoxicity
23 | CC(=O)[C@H]1[C@H](C#N)C[C@H]2[C@@H]3CC=C4C[C@@H](O)CC[C@]4(C)[C@H]3CC[C@@]21C [PREGNENOLONE CARBONITRILE] | AH: Evidence for animal hepatotoxicity but not tested in humans
24 | COc1cc(NC(C)CCCN)c2ncccc2c1.O=P(O)(O)O.O=P(O)(O)O (stereo unspecified) [PRIMAQUINE PHOSPHATE] | WE: Weak evidence (<10 case reports) of human hepatotoxicity
25 | CCC1(c2ccccc2)C(=O)NCNC1=O [PRIMIDONE] | NE: No evidence of hepatotoxicity in any species
26 | CCCN(CCC)S(=O)(=O)c1ccc(C(=O)O)cc1 [PROBENECID] | WE: Weak evidence (<10 case reports) of human hepatotoxicity
27 | CC(C)(Sc1cc(C(C)(C)C)c(O)c(C(C)(C)C)c1)Sc1cc(C(C)(C)C)c(O)c(C(C)(C)C)c1 [PROBUCOL] | NE: No evidence of hepatotoxicity in any species
28 | CNNCc1ccc(C(=O)NC(C)C)cc1.Cl [PROCARBAZINE HYDROCHLORIDE] | HH: Evidence of human hepatotoxicity
29 | CN1CCN(CCCN2c3ccccc3Sc3ccc(Cl)cc32)CC1.O=C(O)/C=C\C(=O)O.O=C(O)/C=C\C(=O)O [PROCHLORPERAZINE MALEATE] | HH: Evidence of human hepatotoxicity
30 | CC(=O)[C@H]1CC[C@H]2[C@@H]3CCC4=CC(=O)CC[C@]4(C)[C@H]3CC[C@]12C [PROGESTERONE] | HH: Evidence of human hepatotoxicity
31 | CN(C)CCCN1c2ccccc2Sc2ccccc21.Cl [PROMAZINE HYDROCHLORIDE] | WE: Weak evidence (<10 case reports) of human hepatotoxicity
32 | CC(CN1c2ccccc2Sc2ccccc21)N(C)C.Cl (stereo unspecified) [PROMETHAZINE HYDROCHLORIDE] | NE: No evidence of hepatotoxicity in any species
33 | CC(C)c1cccc(C(C)C)c1O [PROPOFOL] | NE: No evidence of hepatotoxicity in any species
34 | CC(C)NCC(O)COc1cccc2ccccc12 (stereo unspecified) [PROPRANOLOL] | NE: No evidence of hepatotoxicity in any species
35 | CN[C@@H](C)[C@@H](O)c1ccccc1.Cl [PSEUDOEPHEDRINE HYDROCHLORIDE] | NE: No evidence of hepatotoxicity in any species
36 | COc1ccc(C[C@H](N)C(=O)N[C@H]2[C@@H](O)[C@H](n3cnc4c(N(C)C)ncnc43)O[C@@H]2CO)cc1 [PUROMYCIN] | AH: Evidence for animal hepatotoxicity but not tested in humans
37 | NC(=O)c1cnccn1 [PYRAZINAMIDE] | HH: Evidence of human hepatotoxicity
38 | CN(C)C(=O)Oc1ccc[n+](C)c1.[Br-] [PYRIDOSTIGMINE BROMIDE] | NE: No evidence of hepatotoxicity in any species
39 | Cc1ncc(CO)c(CO)c1O [PYRIDOXINE] | NE: No evidence of hepatotoxicity in any species
40 | CCc1nc(N)nc(N)c1-c1ccc(Cl)cc1 [PYRIMETHAMINE] | HH: Evidence of human hepatotoxicity
41 | C=C[C@H]1C[N@@]2CC[C@H]1C[C@@H]2[C@@H](O)c1ccnc2ccc(OC)cc12 [QUINIDINE] | HH: Evidence of human hepatotoxicity
42 | C=C[C@H]1CN2CC[C@H]1C[C@H]2[C@H](O)c1ccnc2ccc(OC)cc12.C=C[C@H]1CN2CC[C@H]1C[C@H]2[C@H](O)c1ccnc2ccc(OC)cc12.O.O.O=S(=O)(O)O [QUININE SULFATE] | HH: Evidence of human hepatotoxicity

Row | SMILES | Hepatotoxicity
43 | C=C[C@H]1C[N@@]2CC[C@H]1C[C@H]2[C@H](O)c1ccnc2ccc(OC)cc12 [QUININE] | HH: Evidence of human hepatotoxicity
44 | CCO[C@@H](Cc1ccc(OCCN2c3ccccc3Oc3ccccc32)cc1)C(=O)O [RAGAGLITAZAR] | NE: No evidence of hepatotoxicity in any species
45 | O=C(c1ccc(OCCN2CCCCC2)cc1)c1c(-c2ccc(O)cc2)sc2cc(O)ccc12 [RALOXIFENE] | WE: Weak evidence (<10 case reports) of human hepatotoxicity
46 | CNC(=C[N+](=O)[O-])NCCSCc1ccc(CN(C)C)o1 [RANITIDINE] | WE: Weak evidence (<10 case reports) of human hepatotoxicity
47 | NC(=O)c1ncn([C@@H]2O[C@H](CO)[C@@H](O)[C@H]2O)n1 [RIBAVIRIN] | WE: Weak evidence (<10 case reports) of human hepatotoxicity
48 | CO[C@H]1/C=C/O[C@@]2(C)Oc3c(C)c(O)c4c(c3C2=O)C2=NC3(CCN(CC(C)C)CC3)NC2=C(NC(=O)/C(C)=C\C=C\[C@H](C)[C@H](O)[C@@H](C)[C@@H](O)[C@@H](C)[C@H](OC(C)=O)[C@@H]1C)C4=O [RIFABUTIN] | HH: Evidence of human hepatotoxicity
49 | CO[C@H]1/C=C/O[C@@]2(C)Oc3c(C)c(O)c4c(O)c(c(/C=N/N5CCN(C)CC5)c(O)c4c3C2=O)NC(=O)/C(C)=C\C=C\[C@H](C)[C@H](O)[C@@H](C)[C@@H](O)[C@@H](C)[C@H](OC(C)=O)[C@@H]1C [RIFAMPIN] | WE: Weak evidence (<10 case reports) of human hepatotoxicity
50 | Nc1nc2ccc(OC(F)(F)F)cc2s1 [RILUZOLE] | HH: Evidence of human hepatotoxicity
51 | Cc1nc2n(c(=O)c1CCN1CCC(c3noc4cc(F)ccc34)CC1)CCCC2 [RISPERIDONE] | HH: Evidence of human hepatotoxicity
52 | CC(C)c1nc(CN(C)C(=O)N[C@H](C(=O)N[C@@H](Cc2ccccc2)C[C@H](O)[C@H](Cc2ccccc2)NC(=O)OCc2cncs2)C(C)C)cs1 [RITONAVIR] | HH: Evidence of human hepatotoxicity
53 | CN(CCOc1ccc(CC2SC(=O)NC2=O)cc1)c1ccccn1 (stereo unspecified) [ROSIGLITAZONE] | WE: Weak evidence (<10 case reports) of human hepatotoxicity
54 | C=C(C)[C@H]1Cc2c(ccc3c2O[C@@H]2COc4cc(OC)c(OC)cc4[C@@H]2C3=O)O1 [ROTENONE] | AH: Evidence for animal hepatotoxicity but not tested in humans
55 | CC(C)(C)NC(=O)[C@@H]1C[C@@H]2CCCC[C@@H]2CN1C[C@@H](O)[C@H](Cc1ccccc1)NC(=O)[C@H](CC(N)=O)NC(=O)c1ccc2ccccc2n1.CS(=O)(=O)O [SAQUINAVIR MESYLATE] | HH: Evidence of human hepatotoxicity
56 | CN[C@H]1CC[C@@H](c2ccc(Cl)c(Cl)c2)c2ccccc21 [SERTRALINE] | WE: Weak evidence (<10 case reports) of human hepatotoxicity
57 | O=C([O-])O.[Na+] [SODIUM BICARBONATE] | AH: Evidence for animal hepatotoxicity but not tested in humans
58 | [Cl-].[Na+] [SODIUM CHLORIDE] | NE: No evidence of hepatotoxicity in any species
59 | OC[C@@H](O)[C@@H](O)[C@H](O)[C@@H](O)CO [SORBITOL] | NE: No evidence of hepatotoxicity in any species
60 | CC(=O)S[C@@H]1CC2=CC(=O)CC[C@]2(C)[C@H]2CC[C@@]3(C)[C@@H](CC[C@@]34CCC(=O)O4)[C@H]12 [SPIRONOLACTONE] | HH: Evidence of human hepatotoxicity
61 | Cc1cn([C@H]2C=C[C@@H](CO)O2)c(=O)[nH]c1=O [STAVUDINE] | HH: Evidence of human hepatotoxicity
